From US20230381321A1, “CAMPTOTHECIN CONJUGATES” (priority 2022, published 2023)

Tests used:
Format in all cases: cell-based
[1] = system: pancreatic cancer cells (BxPC3); assay: In vitro potency (CellTiter-Glo, 96 h) on BxPC3; conditions: Homo sapiens, BXPC-3, 96 h, CPT free drugs; CellTiter-Glo after 96 h exposure; read-out: BxPC3 IC50
Summary of the method: (§1)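 Steps: plate log-phase cells in RPMI 1640/20% FBS; after 24 h add […] serial dilutions; incubate 4 days; measure luminescence to derive growth inhibition. All lines were STR-profiled and cultured no longer than 2 months.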

[2] = system: anaplastic large cell lymphoma cells (DEL); assay: In vitro potency (CellTiter-Glo, 96 h) on DEL; conditions: 96 h, CPT free drugs; CellTiter-Glo after 96 h exposure; read-out: DEL IC50
Summary of the method: as §1

[3] = In vitro potency (CellTiter-Glo, 96 h) on Ls174T; conditions: Homo sapiens, LS174T; CPT free drugs; CellTiter-Glo after 96 h exposure; read-out: Ls174T IC50
Summary of the method: as §1

[4] = system: breast cancer cells (MDA-MB-231); assay: In vitro potency (CellTiter-Glo, 96 h) on MDA-MB-231; conditions: Homo sapiens, MDA-MB-231, 96 h, CPT free drugs; CellTiter-Glo after 96 h exposure; read-out: MDAMB 231 IC50
Summary of the method: as §1

[5] = system: acute myeloid leukemia cells (MOLM-13); assay: In vitro potency (CellTiter-Glo, 96 h) on MOLM-13; conditions: Homo sapiens, MOLM-13, 96 h, CPT free drugs; CellTiter-Glo after 96 h exposure; read-out: MOLM-13 IC50
Summary of the method: as §1

[6] = system: melanoma cells (A2058); assay: In vitro potency (CellTiter-Glo, 96 h) on A2058; conditions: Homo sapiens, A2058, 96 h, CPT free drugs; CellTiter-Glo after 96 h exposure; read-out: A2058 IC50
Summary of the method: as §1

[7] = system: anaplastic large cell lymphoma cells (Karpas299); assay: In vitro potency (CellTiter-Glo, 96 h) on Karpas299; conditions: Homo sapiens, KARPAS-299, 96 h, CPT free drugs; CellTiter-Glo after 96 h exposure; read-out: Karpas299 IC50
Summary of the method: as §1

[8] = system: anaplastic large cell lymphoma cells (DELBVR); assay: In vitro potency (CellTiter-Glo, 96 h) on DELBVR; conditions: 96 h, CPT free drugs; CellTiter-Glo after 96 h exposure; read-out: DELBVR IC50
Summary of the method: as §1

[9] = system: non-small-cell lung cancer cells (Calu1); assay: In vitro potency (CellTiter-Glo, 96 h) on Calu1; conditions: Homo sapiens, Calu-1, 96 h, CPT free drugs; CellTiter-Glo after 96 h exposure; read-out: Calu1 IC50
Summary of the method: as §1

[10] = system: Hodgkin's lymphoma cells (L540cy); assay: In vitro potency (CellTiter-Glo, 96 h) on L540cy; conditions: L540cy, 96 h, CPT free drugs; CellTiter-Glo after 96 h exposure; read-out: L540cy IC50
Summary of the method: as §1

[11] = system: renal carcinoma cells (786-O); assay: In vitro potency (CellTiter-Glo, 96 h) on 786-O; conditions: Homo sapiens, 786-0, 96 h, CPT free drugs; CellTiter-Glo after 96 h exposure; read-out: 786-O IC50
Summary of the method: as §1

[12] = system: B-lymphocyte cancer cells (SU-DHL4); assay: In vitro potency (CellTiter-Glo, 96 h) on SU-DHL4; conditions: Homo sapiens, SU-DHL-4, 96 h, CPT free drugs; CellTiter-Glo after 96 h exposure; read-out: SU-DHL-4 IC50
Summary of the method: as §1

| SMILES | IC50 [1] | IC50 [2] | IC50 [3] | IC50 [4] | IC50 [5] | IC50 [6] | IC50 [7] | IC50 [8] | IC50 [9] | IC50 [10] | IC50 [11] | IC50 [12] |
| --- | --- | --- | --- | --- | --- | --- | --- | --- | --- | --- | --- | --- |
| C=Cc1ccc2nc3c(c(CN)c2c1)Cn1c-3cc2c(c1=O)COC(=O)[C@]2(O)CC [Compound 33, (19S)-10-(aminomethyl)-19-ethyl-19-hydroxy-7-vinyl-17-oxa-3,13-diazapentacyclo[11.8.0.02,11.04,9.015,20]henicosa-1(21),2,4,6,8,10,15(20)-heptaene-14,18-dione] | 11 nM | 2 nM | 14 nM | 18 nM | 85 nM | 6 nM | 8 nM | 2 nM | 36 nM | 4 nM | 10 nM | 4 nM |
| CC[C@@]1(O)C(=O)OCc2c1cc1n(c2=O)Cc2c-1nc1cc3c(cc1c2CN)CCS3 [Compound 2ar] | 43 nM | 7 nM | 14 nM | 14 nM | 258 nM | 7 nM | 29 nM | 5 nM | 26 nM | 4 nM | 26 nM | 13 nM |
| CC[C@@]1(O)C(=O)OCc2c1cc1n(c2=O)Cc2c-1nc1cc(F)c(C)c(C3=CCCC3)c1c2CN [Compound 6c] | 5 nM | 1 nM | 18 nM | 7 nM | 4 nM | 5 nM | 3 nM | 2 nM | 15 nM | 3 nM | 4 nM | 2 nM |
| CC[C@@]1(O)C(=O)OCc2c1cc1n(c2=O)Cc2c-1nc1cc(F)c(C)c(C3=CCN(C)CC3)c1c2CN [Compound 6l] | 51 nM | 6 nM | 29 nM | 177 nM | 16 nM | 16 nM | 25 nM | 15 nM | 73 nM | 20 nM | 38 nM | 18 nM |
